System: CCRF-CEM cells
Experiment: RNA-Seq differential gene expression
Assay type: cell-based, human
Details: for log2(fold change): Upregulated
From the text: Given our findings that the sensitivity to AVX420 was dependent on increased intracellular ROS, we hypothesized that activation of the integrated stress response (ISR) by oxidative damage may be the cause of cell death. The ISR converges on deactivation of the eukaryotic translation initiation factor 2 alpha (eIF2α) to globally suppress translation, with the exception of selected genes (e.g., activating transcription factor (ATF) 4) which activate robust transcriptional changes to restore homeostasis and promote survival or, when oxidative damage is sustained, to initiate programmed cell death. To investigate this, we used a combination of RNA-SEQ and Ribosomal RNA-SEQ (Ribo-SEQ) to measure the global transcriptional and translational response to AVX420 in CCRF-CEM cells. […] Translational effects were determined by calculating the proportion of total transcript associated with the ribosome (ribosomal occupancy (RO)). […] As a positive control we treated cells for 1 hour with the dual mTOR inhibitor Torin-1, which reduced the RO of 20 mRNAs.
CCRF-CEM cells seeded at 200,000 viable cells/mL were treated with AVX420 (0.5 μM) or DMSO (0.1%) and harvested after 1 hour, 6 h, or 16 h. Torin-1 (100 nM) treatment was harvested after 1 h. The flasks were placed on ice and the cell suspensions were transferred to 50 mL conical tubes for centrifugation (405 × g, 4 °C, 5 min). […] The cells were collected and centrifuged at 405 x g for 5 min at 4 °C. The supernatant was discarded, and the cells were suspended in 1 mL of DPBS before centrifugation at 405 x g for 5 min at 4 °C. Resulting cell pellets were snap-frozen in liquid nitrogen and stored at −80 °C. RNA-Seq and ribosome-associated RNA(Ribo)-Seq was performed by Eclipsebio (eclipsebio.com). Protocols are available in the Supplemental Methods section. […]
correction using the Benjamini-Hochberg correction to control the rate of false-posi-tives. Gene sets with false discovery rate <20% were considered significant. […]
RNA-Seq and ribosome-associated RNA(Ribo)-Seq
RNA-Seq and ribosome-associated RNA(Ribo)-Seq was performed by Eclipsebio (eclipsebio.com). The cytosolic fraction of crosslinked cell pellets was isolated and RNA quality and quantity was assessed before 250 ng of the isolated RNA was used to build 3’ RNA-Seq libraries. 10 µg RNA was used for immunoprecipitation (IP) for Ribo-SEQ analysis. Non-crosslinked RNA was removed from the IP through multiple wash steps and the remaining RNA was released via proteinase digestion. RNA from both sources was fragmented and libraries were generated from the poly(A) tails. Li-braries were sequenced on a NextSeq 2 000. After sequencing, samples were pro-cessed with Eclipsebio’s proprietary analysis pipeline (v1). Unique molecular identifi-ers (UMIs) were pruned from read sequences using umitools (v1.1.1). Next 3' adapt-ers were trimmed from reads using cutadapt (v3.2). Reads were then mapped to a cus-tom, curated database of repetitive elements and rRNA sequences. All non -repeat mapped reads were mapped to the genome hg38 using STAR (v2.7.7a) and PCR du-plicates were removed using umi_tools (v1.1.1). Gene coverage was cal culated using Eclipsebio’s proprietary feature counting algorithm and ribosome occupancy was cal-culated by dividing coverage in the ribosome -associated (IP) library by the RNA -Seq library. Differentially expressed and occupied genes were identified using D ESeq2.
Significant differential expression was defined using a cutoff on p.value < 0.01 (after multiple testing adjustment, "padj" metric) and requiring the fold change in gene cov-erage to be greater than 1 or less than -1 (log2 scale). Significance of the ribosomal occupancy (RO) difference was determined by extending DESeq2 models to include RO fold change as an interaction between the experimental condition and the library type. Genes with a RO log2 (fold change) > 1 or < -1 and an adjusted p-value < 0.01 were considered significant. […]

SMILES: CCCCCCCOc1ccc(OCC(=O)c2nc(C(=O)OC)cs2)cc1 [GK420]
- log2(fold change) (ADM2, 6 h): 1.49
- log2(fold change) (ATF3, 6 h): 1.05
- changes in gene expression (CCRF-CEM, 0.5 μM, 1 hour): No significant changes
- log2FC ADM2 (CCRF-CEM, 0.5 μM, 6 h): 1.49
- log2FC ATF3 (CCRF-CEM, 0.5 μM, 6 h): 1.05
- log2FC CHAC1 (CCRF-CEM, 0.5 μM, 6 h): 2.25
- log2FC DDIT3 (CCRF-CEM, 0.5 μM, 6 h): 1.15
- log2FC ENSG00000260498 (CCRF-CEM, 0.5 μM, 6 h): 1.44
- log2FC GPT2 (CCRF-CEM, 0.5 μM, 6 h): 1.24
- log2FC L3MBTL2-AS1 (CCRF-CEM, 0.5 μM, 6 h): 2.13
- log2FC LINC-PINT (CCRF-CEM, 0.5 μM, 6 h): 1.34
- log2FC LY9 (CCRF-CEM, 0.5 μM, 6 h): 1.05
- log2FC SESN2 (CCRF-CEM, 0.5 μM, 6 h): 1.59
- log2FC SLC6A9 (CCRF-CEM, 0.5 μM, 6 h): 1.25
- log2FC SLC7A11 (CCRF-CEM, 0.5 μM, 6 h): 1.57
- log2FC ULBP1 (CCRF-CEM, 0.5 μM, 6 h): 1.2
- log2FC VLDLR (CCRF-CEM, 0.5 μM, 6 h): 1.27
- log2FC VLDLR-AS1 (CCRF-CEM, 0.5 μM, 6 h): 1.02
- log2FC YAP1 (CCRF-CEM, 0.5 μM, 6 h): 1.04
- number of genes upregulated (CCRF-CEM, 0.5 μM, 6 h): 16
- number of differentially expressed genes (DEGs) (CCRF-CEM, 0.5 μM, 16 h): 82
- log2FoldChange ADM2 (CCRF-CEM, 0.5 μM, 16 hours): 2.31
- log2FoldChange AQP3 (CCRF-CEM, 0.5 μM, 16 hours): -1.1
- log2FoldChange B4GALNT1 (CCRF-CEM, 0.5 μM, 16 hours): 2.37
- log2FoldChange CAMKK1 (CCRF-CEM, 0.5 μM, 16 hours): -1.18
- log2FoldChange CAMKV (CCRF-CEM, 0.5 μM, 16 hours): -1.07
- log2FoldChange CHAC1 (CCRF-CEM, 0.5 μM, 16 hours): 3.51
- log2FoldChange DUSP2 (CCRF-CEM, 0.5 μM, 16 hours): -1.04
- log2FoldChange ENSG00000260498 (CCRF-CEM, 0.5 μM, 16 hours): 2.28
- log2FoldChange GPT2 (CCRF-CEM, 0.5 μM, 16 hours): 3.48
- log2FoldChange HRG (CCRF-CEM, 0.5 μM, 16 hours): 2.92
- log2FoldChange IFRD1 (CCRF-CEM, 0.5 μM, 16 hours): 2.08
- log2FoldChange L3MBTL2-AS1 (CCRF-CEM, 0.5 μM, 16 hours): 3.01
- log2FoldChange LINC02970 (CCRF-CEM, 0.5 μM, 16 hours): 3.49
- log2FoldChange LRRTM1 (CCRF-CEM, 0.5 μM, 16 hours): -1.11
- log2FoldChange MIR22HG (CCRF-CEM, 0.5 μM, 16 hours): 2.58
- log2FoldChange MYT1 (CCRF-CEM, 0.5 μM, 16 hours): -1.13
- log2FoldChange NDUFA4L2 (CCRF-CEM, 0.5 μM, 16 hours): 2.19
- log2FoldChange NMRAL2P (CCRF-CEM, 0.5 μM, 16 hours): 2.89
- log2FoldChange NOL3 (CCRF-CEM, 0.5 μM, 16 hours): 2.29
- log2FoldChange OSGIN1 (CCRF-CEM, 0.5 μM, 16 hours): 3.08
- log2FoldChange PNMA1 (CCRF-CEM, 0.5 μM, 16 hours): -1.02
- log2FoldChange RAG1 (CCRF-CEM, 0.5 μM, 16 hours): -1.12
- log2FoldChange RFPL1S (CCRF-CEM, 0.5 μM, 16 hours): 2.61
- log2FoldChange RPL23AP42 (CCRF-CEM, 0.5 μM, 16 hours): -2.03
- log2FoldChange SESN2 (CCRF-CEM, 0.5 μM, 16 hours): 2.53
- log2FoldChange SLC6A9 (CCRF-CEM, 0.5 μM, 16 hours): 2.93
- log2FoldChange SLC7A11 (CCRF-CEM, 0.5 μM, 16 hours): 3.42
- log2FoldChange THOC3 (CCRF-CEM, 0.5 μM, 16 hours): -1.74
- log2FoldChange TM6SF1 (CCRF-CEM, 0.5 μM, 16 hours): 2.49
- log2FoldChange VLDLR-AS1 (CCRF-CEM, 0.5 μM, 16 hours): 2.44
- log2(fold change) (CHAC1, 6 h): 2.25
- log2(fold change) (DDIT3, 6 h): 1.15
- log2(fold change) (ENSG00000260498, 6 h): 1.44
- log2(fold change) (GPT2, 6 h): 1.24
- log2(fold change) (L3MBTL2-AS1, 6 h): 2.13
- log2(fold change) (LINC-PINT, 6 h): 1.34
- log2(fold change) (LY9, 6 h): 1.05
- log2(fold change) (SESN2, 6 h): 1.59
- log2(fold change) (SLC6A9, 6 h): 1.25
- log2(fold change) (SLC7A11, 6 h): 1.57
- log2(fold change) (ULBP1, 6 h): 1.2
- log2(fold change) (VLDLR, 6 h): 1.27
- log2(fold change) (VLDLR-AS1, 6 h): 1.02
- log2(fold change) (YAP1, 6 h): 1.04
